Laboratory results from ChEMBL document CHEMBL1138545, “Synthesis and antimicrobial activities of some new triazolothiadiazoles bearing 4-methylthiobenzyl moiety” (2009).
Converted amounts (≈) assume the structure as drawn.

Columns and labels:
Format in all cases: functional
Klebsiella pneumoniae = experiment: Antibacterial activity against Klebsiella pneumoniae after 24 hrs by the disk diffusion method; details: for MIC: Klebsiella pneumoniae, 24 h
Aspergillus fumigatus = experiment: Antifungal activity against Aspergillus fumigatus NICM 902 after 3 to days by serial plate dilution method; details: for MIC: Aspergillus fumigatus, NICM 902
Pseudomonas aeruginosa = experiment: Antibacterial activity against Pseudomonas aeruginosa ATTC 27853 after 24 hrs by the disk diffusion method; details: for MIC: Pseudomonas aeruginosa, ATTC 27853, 24 h
Escherichia coli = experiment: Antibacterial activity against Escherichia coli ATTC 25922 after 24 hrs by the disk diffusion method; details: for MIC: Escherichia coli, ATTC 25922, 24 h
Staphylococcus aureus = experiment: Antibacterial activity against Staphylococcus aureus ATTC […] after 24 hrs by the disk diffusion method; details: for MIC: Staphylococcus aureus, 24 h
[1] = system: Trichophyton mentagrophytes; experiment: Antifungal activity against Trichophyton mentagrophytes after 3 to days by serial plate dilution method; details: for MIC: Trichophyton mentagrophytes
Candida albicans = experiment: Antifungal activity against Candida albicans NICM 300 after 3 to days by serial plate dilution method; details: for MIC: Candida albicans, NICM 300
Aspergillus flavus = experiment: Antifungal activity against Aspergillus flavus NICM 524 after 3 to days by serial plate dilution method; details: for MIC: Aspergillus flavus, NICM 524

Compound	inhibition zone (IZ) (Klebsiella pneumoniae) [mm]	MIC (Klebsiella pneumoniae) [µg/mL]	diameter of the inhibition zone (DIZ) (Aspergillus fumigatus) [mm]	MIC (Aspergillus fumigatus) [µg/mL]	inhibition zone (IZ) (Pseudomonas aeruginosa) [mm]	MIC (Pseudomonas aeruginosa) [µg/mL]	inhibition zone (IZ) (Escherichia coli) [mm]	MIC (Escherichia coli) [µg/mL]	inhibition zone (IZ) (Staphylococcus aureus) [mm]	MIC (Staphylococcus aureus) [µg/mL]	diameter of the inhibition zone (DIZ) [1] [mm]	MIC [1] [µg/mL]	diameter of the inhibition zone (DIZ) (Candida albicans) [mm]	MIC (Candida albicans) [µg/mL]	diameter of the inhibition zone (DIZ) (Aspergillus flavus) [mm]	MIC (Aspergillus flavus) [µg/mL]
CSc1ccc(Cc2nnc3sc(-c4ccc([N+](=O)[O-])cc4)nn23)cc1	13	12.5 (≈ 32.6 µM)	15	25 (≈ 65.2 µM)	18	6 (≈ 15.6 µM)	17	12.5 (≈ 32.6 µM)	16	12.5 (≈ 32.6 µM)	11	25 (≈ 65.2 µM)	14	25 (≈ 65.2 µM)	11	25 (≈ 65.2 µM)
CSc1ccc(Cc2nnc3sc(-c4ccc(-c5cc(Cl)ccc5Cl)o4)nn23)cc1	20	12.5 (≈ 26.4 µM)	13	25 (≈ 52.8 µM)	18	6 (≈ 12.7 µM)	16	12.5 (≈ 26.4 µM)	16	25 (≈ 52.8 µM)	17	12.5 (≈ 26.4 µM)	20	6 (≈ 12.7 µM)	18	6 (≈ 12.7 µM)
CSc1ccc(Cc2nnc3sc(-c4ccc(-c5ccc(Cl)cc5[N+](=O)[O-])o4)nn23)cc1	23	6 (≈ 12.4 µM)	22	6 (≈ 12.4 µM)	18	6 (≈ 12.4 µM)	19	6 (≈ 12.4 µM)	18	12.5 (≈ 25.8 µM)	17	6 (≈ 12.4 µM)	18	12.5 (≈ 25.8 µM)	18	12.5 (≈ 25.8 µM)
CSc1ccc(Cc2nnc3sc(-c4ccc(Cl)c(Cl)c4Cl)nn23)cc1	24	6 (≈ 13.6 µM)	13	25 (≈ 56.6 µM)	17	12.5 (≈ 28.3 µM)	19	12.5 (≈ 28.3 µM)	18	12.5 (≈ 28.3 µM)	17	25 (≈ 56.6 µM)	10	25 (≈ 56.6 µM)	15	25 (≈ 56.6 µM)
CSc1ccc(Cc2nnc3sc(-c4ccc(-c5ccc(C)cc5)o4)nn23)cc1	23	6 (≈ 14.3 µM)	21	12.5 (≈ 29.9 µM)	18	6 (≈ 14.3 µM)	18	6 (≈ 14.3 µM)	18	12.5 (≈ 29.9 µM)	17	12.5 (≈ 29.9 µM)	14	25 (≈ 59.7 µM)	11	25 (≈ 59.7 µM)
CSc1ccc(Cc2nnc3sc(-c4ccc(-c5ccc(Br)cc5)o4)nn23)cc1	15	25 (≈ 51.7 µM)	20	6 (≈ 12.4 µM)	11	25 (≈ 51.7 µM)	11	25 (≈ 51.7 µM)	12	25 (≈ 51.7 µM)	20	6 (≈ 12.4 µM)	18	6 (≈ 12.4 µM)	17	12.5 (≈ 25.9 µM)
Cc1cc(C2CCCCC2)n(O)c(=O)c1.NCCO [CICLOPIROX OLAMINE]			22	6							20	6	20	6	18	12.5
CSc1ccc(Cc2nnc3sc(-c4ccc(-c5ccc([N+](=O)[O-])cc5)o4)nn23)cc1	20	12.5 (≈ 27.8 µM)	14	25 (≈ 55.6 µM)	10	25 (≈ 55.6 µM)	17	25 (≈ 55.6 µM)	16	25 (≈ 55.6 µM)	11	25 (≈ 55.6 µM)	17	12.5 (≈ 27.8 µM)	11	25 (≈ 55.6 µM)
CSc1ccc(Cc2nnc3sc(-c4cc(Cl)ccc4Cl)nn23)cc1	13	25 (≈ 61.4 µM)	11	25 (≈ 61.4 µM)	10	25 (≈ 61.4 µM)	12	25 (≈ 61.4 µM)	15	25 (≈ 61.4 µM)	13	25 (≈ 61.4 µM)	15	25 (≈ 61.4 µM)	11	25 (≈ 61.4 µM)
COc1ccc(-c2ccc(-c3nn4c(Cc5ccc(SC)cc5)nnc4s3)o2)c([N+](=O)[O-])c1	21	6 (≈ 12.5 µM)	19	12.5 (≈ 26.1 µM)	12	25 (≈ 52.1 µM)	13	25 (≈ 52.1 µM)	12	25 (≈ 52.1 µM)	15	25 (≈ 52.1 µM)	17	25 (≈ 52.1 µM)	12	25 (≈ 52.1 µM)
CSc1ccc(Cc2nnc3sc(-c4ccc(O)cc4)nn23)cc1	17	25 (≈ 70.5 µM)	22	6 (≈ 16.9 µM)	12	25 (≈ 70.5 µM)	10	25 (≈ 70.5 µM)	12	25 (≈ 70.5 µM)	18	6 (≈ 16.9 µM)	20	6 (≈ 16.9 µM)	18	12.5 (≈ 35.3 µM)
CSc1ccc(Cc2nnc3sc(-c4ccc(-c5ccccc5C(F)(F)F)o4)nn23)cc1	25	6 (≈ 12.7 µM)	20	6 (≈ 12.7 µM)	18	6 (≈ 12.7 µM)	18	12.5 (≈ 26.5 µM)	19	12.5 (≈ 26.5 µM)	20	6 (≈ 12.7 µM)	15	25 (≈ 52.9 µM)	11	25 (≈ 52.9 µM)
CSc1ccc(Cc2nnc3sc(-c4ccc(F)cc4)nn23)cc1	25	6 (≈ 16.8 µM)	19	12.5 (≈ 35.1 µM)	17	12.5 (≈ 35.1 µM)	19	12.5 (≈ 35.1 µM)	18	12.5 (≈ 35.1 µM)	17	12.5 (≈ 35.1 µM)	10	25 (≈ 70.1 µM)	16	12.5 (≈ 35.1 µM)
CSc1ccc(Cc2nnc3sc(-c4ccc(-c5ccc(Cl)cc5)o4)nn23)cc1	22	12.5 (≈ 28.5 µM)	17	12.5 (≈ 28.5 µM)	18	6 (≈ 13.7 µM)	20	6 (≈ 13.7 µM)	18	12.5 (≈ 28.5 µM)	16	25 (≈ 57 µM)	12	25 (≈ 57 µM)	10	25 (≈ 57 µM)
CSc1ccc(Cc2nnc3sc(Cc4ccccc4)nn23)cc1	14	25 (≈ 70.9 µM)	13	25 (≈ 70.9 µM)	15	25 (≈ 70.9 µM)	11	25 (≈ 70.9 µM)	11	25 (≈ 70.9 µM)	12	25 (≈ 70.9 µM)	17	6 (≈ 17 µM)	10	25 (≈ 70.9 µM)
CSc1ccc(Cc2nn3c(Cc4ccc(SC)cc4)nnc3s2)cc1	13	25 (≈ 62.7 µM)	22	6 (≈ 15.1 µM)	18	6 (≈ 15.1 µM)	16	12.5 (≈ 31.4 µM)	18	12.5 (≈ 31.4 µM)	20	6 (≈ 15.1 µM)	19	6 (≈ 15.1 µM)	17	25 (≈ 62.7 µM)
CSc1ccc(Cc2nnc3sc(-c4cc(F)c(Cl)cc4Cl)nn23)cc1	23	6 (≈ 14.1 µM)	21	6 (≈ 14.1 µM)	17	12.5 (≈ 29.4 µM)	20	6 (≈ 14.1 µM)	19	12.5 (≈ 29.4 µM)	19	6 (≈ 14.1 µM)	20	6 (≈ 14.1 µM)	18	6 (≈ 14.1 µM)
